Measurements: patent US6596687B1, “Cell adhesion inhibitors” (Biogen, Inc., priority 1995, dated 2003)
Numbered stars: 1 amine (or outer) side, 2 acyl side, 3 side chain; on linkers, the order of the positions; unused ones are H or OH. Square brackets hold non-standard residues; d marks the D form. Peptide text beside a SMILES is read from it. * marks the point of attachment. X3 = COc1cc(CC(=O)[*:2])ccc1N[*:1]; Boc = CC(C)(C)OC(=O)*; CO = O=C([*:1])[*:2]; NHBn = c1ccc(CN*)cc1; NHPh = c1ccc(N*)cc1

Target: T1, VLA4 (Homo sapiens, UniProt P05556+P13612)
T1 construct: endogenous in cells; host or cells: Ramos cells
T1 sequence (P13612 34-1032): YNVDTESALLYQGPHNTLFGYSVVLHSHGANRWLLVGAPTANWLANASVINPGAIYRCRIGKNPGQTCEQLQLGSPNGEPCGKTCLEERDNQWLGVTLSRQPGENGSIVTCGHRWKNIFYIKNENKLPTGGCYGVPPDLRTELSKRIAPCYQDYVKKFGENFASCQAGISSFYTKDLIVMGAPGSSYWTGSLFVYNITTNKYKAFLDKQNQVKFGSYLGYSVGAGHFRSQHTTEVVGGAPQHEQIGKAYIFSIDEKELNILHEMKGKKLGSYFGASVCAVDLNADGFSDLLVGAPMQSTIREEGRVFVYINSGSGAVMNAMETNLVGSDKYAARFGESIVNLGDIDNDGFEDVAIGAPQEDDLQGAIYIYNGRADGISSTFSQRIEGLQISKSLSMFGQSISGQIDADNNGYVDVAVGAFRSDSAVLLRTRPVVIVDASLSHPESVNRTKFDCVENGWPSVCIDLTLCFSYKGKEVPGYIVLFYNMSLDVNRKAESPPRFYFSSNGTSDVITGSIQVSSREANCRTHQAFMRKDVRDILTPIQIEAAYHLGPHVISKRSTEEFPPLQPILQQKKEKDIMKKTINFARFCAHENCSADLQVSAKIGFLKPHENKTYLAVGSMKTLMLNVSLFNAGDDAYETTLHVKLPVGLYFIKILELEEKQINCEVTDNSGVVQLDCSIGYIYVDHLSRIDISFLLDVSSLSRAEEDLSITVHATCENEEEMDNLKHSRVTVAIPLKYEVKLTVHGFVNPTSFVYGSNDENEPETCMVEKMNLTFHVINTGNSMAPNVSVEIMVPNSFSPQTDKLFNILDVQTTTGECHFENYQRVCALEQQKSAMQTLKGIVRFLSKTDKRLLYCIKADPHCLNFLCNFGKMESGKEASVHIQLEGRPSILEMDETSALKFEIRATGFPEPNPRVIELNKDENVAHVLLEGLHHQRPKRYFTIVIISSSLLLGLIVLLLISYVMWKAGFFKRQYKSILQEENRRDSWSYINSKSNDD
T1 sequence (P05556 21-798): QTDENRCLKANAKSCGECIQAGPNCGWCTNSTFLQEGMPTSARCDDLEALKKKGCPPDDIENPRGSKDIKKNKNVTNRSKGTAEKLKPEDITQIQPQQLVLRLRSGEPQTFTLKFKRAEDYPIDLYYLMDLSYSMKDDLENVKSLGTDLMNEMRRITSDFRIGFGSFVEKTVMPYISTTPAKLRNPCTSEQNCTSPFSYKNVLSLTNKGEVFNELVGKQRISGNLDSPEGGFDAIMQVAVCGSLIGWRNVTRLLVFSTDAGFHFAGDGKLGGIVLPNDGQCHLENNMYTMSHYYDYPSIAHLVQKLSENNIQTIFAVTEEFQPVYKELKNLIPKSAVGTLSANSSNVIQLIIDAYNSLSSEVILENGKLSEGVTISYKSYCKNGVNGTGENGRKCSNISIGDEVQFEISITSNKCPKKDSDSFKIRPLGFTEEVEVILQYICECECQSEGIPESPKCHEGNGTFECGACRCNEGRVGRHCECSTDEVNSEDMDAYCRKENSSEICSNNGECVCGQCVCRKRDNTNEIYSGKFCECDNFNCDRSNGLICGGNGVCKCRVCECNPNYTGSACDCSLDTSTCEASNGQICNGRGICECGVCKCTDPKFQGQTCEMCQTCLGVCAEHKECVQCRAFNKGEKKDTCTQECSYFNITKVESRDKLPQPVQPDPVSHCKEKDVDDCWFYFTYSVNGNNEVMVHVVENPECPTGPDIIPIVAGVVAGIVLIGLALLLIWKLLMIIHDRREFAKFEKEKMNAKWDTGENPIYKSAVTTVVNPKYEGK
Assay: Inhibition of VLA4-dependent adhesion of Ramos cells to BSA-CS1
Assay type: cell-based
Details: Ramos cells, BSA-CS1 coated wells, 2 mM MnCl2, 30 minutes at room temperature; read-out: IC50
From the text: For example, the cell adhesion inhibitory activity of these compounds may be measured by determining the concentration of inhibitor required to block the binding of VLA-4-expressing cells to fibronectin- or CS1-coated plates. In this assay microtiter wells are coated with either fibronectin (containing the CS1-sequence) or CS-1. If CS-1 is used, it must be conjugated to a carrier protein, such as bovine serum albumin, in order to bind to the wells. Once the wells are coated, varying concentrations of the test compound are then added together with appropriately labelled, VLA-4-expressing cells. Alternatively, the test compound may be added first and allowed to incubate with the coated wells prior to the addition of the cells. The cells are allowed to incubate in the wells for at least 30 minutes. Following incubation, the wells are emptied and washed. Inhibition of binding is measured by quantitating the fluorescence or radioactivity bound to the plate for each of the various concentrations of test compound, as well as for controls containing no test compound.
VLA-4-expressing cells that may be utilized in this assay include Ramos cells, Jurkat cells, A375 melanoma cells, as well as human peripheral blood lymophocytes (PBLs). The cells used in this assay may be fluorescently or radioactively labelled.
This assay was used to assess the potency of VLA4-directed inhibitory compounds of this invention. 1.
We dissolved BSA-SMCC (Pierce Chemical, Rockford, Ill.; Catalog #77115) in H2O at a concentration of 10 mg/mL. [SEQ ID NO:4]: […](“Cys-Tyr-CS1 peptide”), which we synthesized by conventional solid phase chemistry and purified by HPLC, was dissolved in 10 mM HEPES pH 5, 50 mM NaCl and 0.1 mM EDTA also at a concentration of 10 mg/mL. We then mixed 500 μL of BSA-SMCC, 250 μL of Cys-Tyr-CS1 peptide and 75 μL of 1 mM HEPES pH 7.5 and allowed the conjugation reaction to proceed for 30 minutes. We stopped the reaction by adding 1 μL of beta-mercaptoethanol. Samples were analyzed for cross-linking by SDS-PAGE.
We coated the wells of a Linbro titertek polystyrene 96-well flat bottom plate (Flow Laboratories, Maclean, Va.; catalog #76-231-05) with 100 μL of the above-described BSA-CS1 solution diluted to 1 μg/mL in 0.05 M NaHCO3 (15 mM NaHCO3, 35 mM Na2CO3) pH 9.2. Some wells were not coated with CS1 in order to assess non-specific cell binding (NSB). The plate was then incubated overnight at 4° C.
Following this incubation, the contents of the wells were removed by inverting and blotting the plate. All of the wells were then blocked with 100 μL of 1% BSA in PBS, 0.02% NaN3, for a minimum of one hour at room temperature.
Ramos cells are grown, maintained and labelled in RPMI 1640 culture medium containing 1% BSA. Just prior to running the assay, we added 2′, 7′-bis-(2-carboxyethyl)-5(and -6)carboxyfluorescein acetoxymethyl ester (“BCECF-AM”; Molecular Probes Inc., Eugene, Oregon; catalog #B-1150) to a final concentration of 2 μM to a culture of Ramos cells (4×10^6 cells/mL). We incubated the cells for 20 minutes at 37° C.
Following labelling, the cells were washed twice in assay buffer (24 mM TRIS, 137 mM NaCl, 2.7 mM KCl, pH 7.4, containing 0.1 BSA and 2mM glucose) to remove any cations originating from the culture medium. The cells were then resuspended in assay buffer to 4×10^6 cells/mL and 2 mM MnCl2 was added to upregulate VLA4 on the surface of the cells.
Immediately prior to running the assay, we removed the BSA blocking solution from the 96-well plates and washed the wells with 100 μL of assay buffer. We then added to each well 25 μL of test cell adhesion inhibitory compound at 2×the final concentration and 25 μL of the labelled Ramos cells. […] Each concentration of compound was tested in triplicate. The compound and cells are allowed to incubate for 30 minutes at room temperature.

Row | IC50 [µM] | SMILES
1 | < 0.05 | COc1cc(CC(=O)N[C@@H](CC(C)C)C(=O)N[C@@H](CC(=O)O)C(=O)N[C@H](C(=O)N2CCC[C@H]2C(=O)O)C(C)C)ccc1NC(=O)Nc1ccccc1 [Compound 1] ({NHPh-CO}-[X3]LDVP-OH)
2 | < 0.05 | COc1cc(CC(=O)N[C@@H](CCSC)C(=O)N[C@@H](CC(=O)O)C(=O)N[C@H](C(=O)N2CCC[C@H]2C(=O)O)C(C)C)ccc1NC(=O)Nc1ccccc1 [Compound 2] ({NHPh-CO}-[X3]MDVP-OH)
3 | < 0.05 | COc1nc(CC(=O)N[C@@H](CC(C)C)C(=O)N[C@@H](CC(=O)O)C(=O)N[C@H](C(N)=O)C(C)C)ccc1NC(=O)Nc1ccccc1C [Compound 3]
4 | > 10 | CC(C)C[C@H](NC(=O)c1cc2ccccc2cn1)C(=O)N[C@@H](CCC(=O)O)C(=O)N[C@H](C(=O)O)C(C)C [Compound 5]
5 | > 10 | CC(C)C[C@H](NC(=O)c1cc2ccccc2cn1)C(=O)N[C@@H](CO)C(=O)N[C@H](C(=O)O)C(C)C [Compound 7]
6 | > 10 | CC(C)C[C@H](NC(=O)c1cc2ccccc2cn1)C(=O)N[C@@H](CS)C(=O)N[C@H](C(=O)O)C(C)C [Compound 9]
7 | > 10 | CC(C)C[C@H](NC(=O)c1cc2ccccc2cn1)C(=O)N[C@@H](CC(=O)O)C(=O)O [Compound 12]
8 | > 10 | CC(C)CNC(=O)[C@@H](CC(=O)O)NC(=O)[C@H](CC(C)C)NC(=O)CCc1ccc(O)cc1 [Compound 15]
9 | > 10 | CCC(C)C(NC(=O)CCc1ccc(O)cc1)C(=O)NC(CC(=O)O)C(=O)NCC(C)C (stereo not drawn) [Compound 17]
10 | 0.05 to 10 | COC(=O)[C@@H](NC(=O)[C@H](CC(=O)O)NC(=O)[C@H](CC(C)C)N(C)C(=O)CCc1ccc(O)cc1)C(C)C [Compound 18]
11 | > 10 | COC(=O)[C@@H](NC(=O)[C@H](CC(=O)O)NC(=O)[C@H](CC(C)C)NC(=O)CCc1ccc(O)cc1)C(C)C [Compound 19]
12 | > 10 | COC(=O)[C@H](C(C)C)N(C)C(=O)[C@H](CC(=O)O)NC(=O)[C@H](CC(C)C)NC(=O)CCc1ccc(O)cc1 [Compound 20]
13 | > 10 | COC(=O)[C@@H](NC(=O)[C@H](CC(=O)O)N(C)C(=O)[C@H](CC(C)C)NC(=O)CCc1ccc(O)cc1)C(C)C [Compound 22]
14 | > 10 | CC(C)C[C@H](NC(=O)C1Cc2ccccc2CN1)C(=O)N[C@@H](CC(=O)O)C(=O)O (stereo partly drawn) [Compound 23] (HELM PEPTIDE1{[O=C(C1Cc2ccccc2CN1)[*:2]].L.D}$$$$V2.0)
15 | > 10 | COC(=O)[C@@H](NC(=O)[C@H](CC(=O)O)NC(=O)[C@H](CC(C)C)N(Cc1ccccc1)C(C)=O)C(C)C [Compound 28]
16 | > 10 | COC(=O)[C@@H](NC(=O)[C@H](CC(=O)O)NC(=O)[C@H](CC(C)C)N(CCc1ccccc1)C(C)=O)C(C)C [Compound 29]
17 | > 10 | COC(=O)[C@@H](NC(=O)[C@H](CC(=O)O)NC(=O)[C@H](CC(C)C)N(CCc1ccccc1)C(=O)CCc1ccccc1)C(C)C [Compound 30]
18 | > 10 | CC(C)C[C@H](NC(=O)C1Cc2ccccc2CN1)C(=O)N[C@@H](CCC(=O)O)C(=O)N[C@H](C(=O)O)C(C)C (stereo partly drawn) [Compound 31] (HELM PEPTIDE1{[O=C(C1Cc2ccccc2CN1)[*:2]].L.E.V}$$$$V2.0)
19 | > 10 | CC(C)C[C@H](NC(=O)c1cc2ccccc2cn1)C(=O)N[C@@H](CC(=O)O)C(=O)N[C@H](C(=O)N1CCC[C@H]1C(=O)O)C(C)C [Compound 32]
20 | 0.05 to 10 | CC(C)C[C@H](NC(=O)Cc1ccccc1)C(=O)N[C@@H](CC(=O)O)C(=O)N[C@H](C(=O)N1CCC[C@H]1C(=O)O)C(C)C [Compound 34]

Row | IC50 [µM] | SMILES
21 | 0.05 to 10 | COC(=O)[C@@H]1CCCN1C(=O)[C@@H](NC(=O)[C@H](CC(=O)O)NC(=O)[C@H](CC(C)C)NC(=O)Cc1ccccc1)C(C)C [Compound 35]
22 | > 10 | CC(C)C[C@H](NC(=O)CCc1ccccc1)C(=O)N[C@@H](CC(=O)O)C(=O)N[C@H](C(=O)N1CCC[C@H]1C(=O)O)C(C)C [Compound 36]
23 | > 10 | COC(=O)[C@@H]1CCCN1C(=O)[C@@H](NC(=O)[C@H](CC(=O)O)NC(=O)[C@H](CC(C)C)NC(=O)CCc1ccccc1)C(C)C [Compound 37]
24 | > 10 | CC(C)C[C@H](NC(=O)CCc1ccc(O)cc1)C(=O)N[C@@H](CC(=O)O)C(=O)N[C@H](C(=O)N1CCC[C@H]1C(=O)O)C(C)C [Compound 38]
25 | > 10 | COC(=O)[C@@H]1CCCN1C(=O)[C@@H](NC(=O)[C@H](CC(=O)O)NC(=O)[C@H](CC(C)C)NC(=O)OC(C)(C)C)C(C)C [Compound 40]
26 | 0.05 to 10 | COC(=O)[C@@H]1CCCN1C(=O)[C@@H](NC(=O)[C@H](CC(=O)O)NC(=O)[C@H](CC(C)C)NC(=O)c1ccc2ccccc2n1)C(C)C [Compound 41]
27 | 0.05 to 10 | CC(C)CC(NC(=O)Cc1ccccc1)C(=O)NC(CC(=O)O)C(=O)NC(C(=O)N1CCCCC1C(=O)O)C(C)C (stereo not drawn) [Compound 42]
28 | > 10 | CNC(=O)[C@@H](NC(=O)[C@H](CC(=O)O)NC(=O)[C@H](CC(C)C)N(C)C(=O)Cc1ccc(OC)cc1)C(C)C [Compound 45]
29 | > 10 | CNC(=O)[C@@H](NC(=O)[C@H](CC(=O)O)NC(=O)[C@H](CC(C)C)N(C)C(=O)CCc1ccc(O)cc1)C(C)C [Compound 46]
30 | > 10 | CNC(=O)[C@@H](NC(=O)[C@H](CC(=O)O)NC(=O)[C@H](CC(C)C)NC(=O)NCc1ccccc1)C(C)C [Compound 47] ({NHBn-CO}-Leu-Asp-Val-NHMe)
31 | > 10 | CNC(=O)[C@@H](NC(=O)[C@H](CC(=O)O)NC(=O)[C@H](CC(C)C)NC(=O)Nc1ccc(C)cc1)C(C)C [Compound 48]
32 | 0.05 to 10 | CNC(=O)[C@@H](NC(=O)[C@H](CC(=O)O)NC(=O)[C@H](CC(C)C)NC(=O)c1ccc2ccccc2n1)[C@@H](C)OC [Compound 59]
33 | > 10 | CC(C)C[C@H](NC(=O)c1ccc2ccccc2n1)C(=O)N[C@@H](CC(=O)O)C(=O)N[C@H](C(=O)NC(C)(C)C)[C@@H](C)O [Compound 60]
34 | 0.05 to 10 | CC(C)C[C@H](NC(=O)c1ccc2ccccc2n1)C(=O)N[C@@H](CC(=O)O)C(=O)N[C@H](C(=O)N1CCOCC1)[C@@H](C)O [Compound 61]
35 | > 10 | CC(C)C[C@H](NC(=O)OC(C)(C)C)C(=O)N[C@@H](CC(=O)O)C(=O)N[C@H](C(=O)NC(C)(C)C)[C@@H](C)O [Compound 62] (HELM PEPTIDE1{[CC(C)(C)OC(=O)[*:2]].L.D.T.[CC(C)(C)N[*:1]]}$$$$V2.0)
36 | > 10 | CC(C)C[C@H](NC(=O)C1(NC(=O)OC(C)(C)C)CCc2ccccc2C1)C(=O)N[C@@H](CC(=O)O)C(=O)N[C@H](C(=O)O)C(C)C (stereo partly drawn) [Compound 63] (HELM PEPTIDE1{[CC(C)(C)OC(=O)[*:2]].[O=C(C1(N[*:1])CCc2ccccc2C1)[*:2]].L.D.V}$$$$V2.0)
37 | > 10 | CC(C)C[C@H](NC(=O)CCc1ccccc1)C(=O)N[C@@H](CC(=O)O)C(=O)N[C@H](C(=O)O)C(C)C [Compound 64] (HELM PEPTIDE1{[O=C(CCc1ccccc1)[*:2]].L.D.V}$$$$V2.0)
38 | > 10 | CC(C)C[C@H](NC(=O)C(Cc1ccc(O)cc1)N(S(C)(=O)=O)S(C)(=O)=O)C(=O)N[C@@H](CC(=O)O)C(=O)N[C@H](C(=O)O)C(C)C (stereo partly drawn) [Compound 65]
39 | > 10 | CC(C)CC(NC(=O)C(Cc1ccc(O)cc1)NC(=O)OC(C)(C)C)C(=O)NC(CC(=O)O)C(=O)NC(C(=O)O)C(C)C (stereo not drawn) [Compound 66] (Boc-YLDV-OH; configuration not given here)
